# Laboratory results taken from US7605265B2, “Heterodimers and methods of using them” (priority 2007, dated 2009).
# Assays:
# [1] = test system: transient focal ischemia; assay: MCAO (middle carotid artery occlusion model), transient focal ischemia; type: in vivo, mice
# Experimental: The MCAO (middle carotid artery occlusion model) was performed to investigate the protective effects of compounds A, B and C on the brain when the brain was exposed to transient focal ischemia (lack of oxygen), emulating brain conditions during a stroke. […] The ability of the novel compounds to protect against the appearance of these neurological deficits was examined using a four-point scale neurological scoring system (Mann Whitney U test). For each of the following observable signs, the distribution of test subjects was noted (with and without treatment with the invention after ischemia): (0) no observable neurological deficits (normal); (1) failure to extend the left forepaw fully (mild); (2) circling to the contralateral side (moderate); and (3) loss of walking and righting reflex (severe). • (ii) The brains of the test subjects slices were sectioned into five pieces and the infarct area and volume of each slice was measured. The % of infarct area in test subjects treated with the invention after ischemia was compared to that of the control group for each brain slice. • (iii) Hemispheric brain swelling and infarct volume (the area of dead tissue caused by inadequate blood supply) was measured for test subjects treated with the invention after ischemia, and compared to that of the control group.
# The compounds were administered 5 minutes after ischemia, 5 minutes after reperfusion, or 6 hours after ischemia. FIGS. 5a to 5f show results for the heterodimers compound B, C or A respectively, when administered 5 minutes after ischemia or reperfusion. FIGS. 5g and 5h show the results when the novel heterodimers were administered 6 hours after ischemia.
# Compound B was administered at 5 minutes after ischemia. Distribution of neurological scores based on a four-point scale neurological scoring system (Mann Whitney U test): (0) no observable neurological deficits (normal); (1) failure to extend the left forepaw fully (mild); (2) circling to the contralateral side (moderate); and (3) loss of walking and righting reflex (severe).
# The brain was sectioned into five pieces, each 2-mm thick. The infarct area of each posterior surface was analyzed by an image analysis program. The percentage of infarct area and volume were calculated and presented as the percentage of the infarct area of the contralateral hemisphere to eliminate the contribution of edema to the ischemic lesion.
# The infarct area of each posterior surface was analyzed by an image analysis program. Hemispheric brain swelling was calculated as follows (ipsilateral volume−contralateral volume)/contralateral volume×100%.
# [2] = molecular target: T1, acetylcholinesterase (AChE) (Rattus norvegicus, UniProt P37136); assay: In vitro inhibition of AChE (cholinesterase assay, Ellman method); type: biochemical
# T1 construct: from tissue; host or cells: rat brain cortex
# T1 sequence (P37136 32-614): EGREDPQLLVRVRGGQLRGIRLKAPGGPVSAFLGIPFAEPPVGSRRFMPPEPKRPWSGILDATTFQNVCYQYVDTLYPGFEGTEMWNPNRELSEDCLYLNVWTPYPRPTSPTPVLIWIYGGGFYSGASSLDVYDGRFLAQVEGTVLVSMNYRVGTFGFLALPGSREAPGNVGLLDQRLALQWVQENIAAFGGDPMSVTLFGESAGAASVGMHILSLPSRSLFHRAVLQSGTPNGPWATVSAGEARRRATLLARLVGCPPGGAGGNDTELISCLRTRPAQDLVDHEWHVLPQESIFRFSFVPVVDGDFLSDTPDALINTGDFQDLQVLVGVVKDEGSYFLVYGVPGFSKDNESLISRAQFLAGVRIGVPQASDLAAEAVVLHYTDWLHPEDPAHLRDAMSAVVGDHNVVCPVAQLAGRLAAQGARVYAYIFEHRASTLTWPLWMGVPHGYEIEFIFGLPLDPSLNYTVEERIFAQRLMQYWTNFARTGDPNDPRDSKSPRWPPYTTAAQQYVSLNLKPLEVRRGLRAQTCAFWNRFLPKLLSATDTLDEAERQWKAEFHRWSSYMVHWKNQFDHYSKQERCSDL
# Experimental: The in vitro inhibition of the enzymes acetylcholinesterase (AChE) and butyrylcholinesterase (BChE) were assessed. BChE, like AChE, breaks down acetylcholine (ACh) but is found in plasma and other organs such as the liver, skin and gastrointestinal tract.
# The enzymes, AChE and BChE, used in the inhibition studies were prepared from the cortex and serum of decapitated rats, respectively.
# [3] = molecular target: T2, butyrylcholinesterase (BChE) (Rattus norvegicus, UniProt Q9JKC1); assay: biochemical
# T2 construct: from tissue; host or cells: rat serum
# T2 sequence (Q9JKC1 24-597): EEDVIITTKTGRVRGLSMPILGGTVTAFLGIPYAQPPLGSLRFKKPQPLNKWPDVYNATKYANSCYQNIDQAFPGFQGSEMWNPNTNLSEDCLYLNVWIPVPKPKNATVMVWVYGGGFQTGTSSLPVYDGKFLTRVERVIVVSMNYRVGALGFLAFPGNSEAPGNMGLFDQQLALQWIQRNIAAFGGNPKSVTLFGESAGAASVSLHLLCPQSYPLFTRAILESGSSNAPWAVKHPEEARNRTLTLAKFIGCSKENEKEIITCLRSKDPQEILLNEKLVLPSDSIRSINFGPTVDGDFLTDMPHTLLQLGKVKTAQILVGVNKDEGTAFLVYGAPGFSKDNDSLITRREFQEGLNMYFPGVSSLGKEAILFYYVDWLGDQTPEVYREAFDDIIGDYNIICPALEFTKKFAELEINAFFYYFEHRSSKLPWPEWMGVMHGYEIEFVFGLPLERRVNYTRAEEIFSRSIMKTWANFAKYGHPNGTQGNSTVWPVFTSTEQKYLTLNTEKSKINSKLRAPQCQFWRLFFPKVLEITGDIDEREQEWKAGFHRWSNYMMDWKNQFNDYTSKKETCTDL
# [4] = 0.005 μg/kg, 6 hours after ischemia
# [5] = 0.05 μg/kg, 5 minutes after ischemia
# [6] = 0.05 μg/kg, 6 hours after ischemia
# [7] = 0.5 μg/kg, 5 minutes after ischemia
smiles,measurement,setting,value
O=c1ccc2c([nH]1)CCCC2NCCCCCCCNc1c2c(nc3cc(Cl)ccc13)CCCC2 (centres unmarked) [Compound B],% Infarct area in brain slice # 1,[1]; [4],11.9 ± 4.3%
same,% Infarct area in brain slice # 2,[1]; [4],43.4 ± 6.5%
same,% Infarct area in brain slice # 3,[1]; [4],40.1 ± 4.7 %
same,% Infarct area in brain slice # 4,[1]; [4],24.3 ± 7.5%
same,% Infarct area in brain slice # 5,[1]; [4],−1.4 ± 1.0%
same,Hemispheric swelling (%),[1]; [4],7.3 ± 1.2%
same,Infarct volume (%),[1]; [4],28.5 ± 3.4%
same,Observed Neurological Deficits Mean ± SEM,[1]; [4],1.2 ± 0.2
same,"Observed Neurological Deficits, score 0 (number of animals)",[1]; [4],0
same,"Observed Neurological Deficits, score 1 (number of animals)",[1]; [4],7
same,"Observed Neurological Deficits, score 2 (number of animals)",[1]; [4],2
same,"Observed Neurological Deficits, score 3 (number of animals)",[1]; [4],0
same,n (dead/total): dead/total,[1]; [4],9 (0/9)
same,% Infarct area in brain slice # 1,[1]; [5],11.5%
same,% Infarct area in brain slice # 2,[1]; [5],42.6 ± 4.8 %
same,% Infarct area in brain slice # 3,[1]; [5],40.0 ± 6.6 %
same,% Infarct area in brain slice # 4,[1]; [5],34.0%
same,% Infarct area in brain slice # 5,[1]; [5],0.1%
same,Hemispheric swelling (%),[1]; [5],6.5 ± 1.5%
same,Infarct volume (%),[1]; [5],31.2 ± 4.6 %
same,Observed Neurological Deficits Mean ± SEM,[1]; [5],1.1 ± 0.1
same,"Observed Neurological Deficits, score 0 (number of animals)",[1]; [5],0
same,"Observed Neurological Deficits, score 1 (number of animals)",[1]; [5],8
same,"Observed Neurological Deficits, score 2 (number of animals)",[1]; [5],1
same,"Observed Neurological Deficits, score 3 (number of animals)",[1]; [5],0
same,n (dead/total): dead/total,[1]; [5],9 (2/11)
same,infarct area in brain slices (in words),"[1]; 0.05 μg/kg, 5 minutes after ischemia, FIG. 5a",reduced the infarct area in brain slices #2 and #3
same,% Infarct area in brain slice # 1,[1]; [6],15.7 ± 2.9%
same,% Infarct area in brain slice # 2,[1]; [6],50.5 ± 7.2%
same,% Infarct area in brain slice # 3,[1]; [6],41.7 ± 6.0%
same,% Infarct area in brain slice # 4,[1]; [6],25.2 ± 8.2%
same,% Infarct area in brain slice # 5,[1]; [6],−1.3 ± 1.7%
same,Hemispheric swelling (%),[1]; [6],7.0 ± 1.5%
same,Infarct volume (%),[1]; [6],31.1 ± 4.8%
same,Observed Neurological Deficits Mean ± SEM,[1]; [6],1.4 ± 0.2
same,"Observed Neurological Deficits, score 0 (number of animals)",[1]; [6],0
same,"Observed Neurological Deficits, score 1 (number of animals)",[1]; [6],5
same,"Observed Neurological Deficits, score 2 (number of animals)",[1]; [6],3
same,"Observed Neurological Deficits, score 3 (number of animals)",[1]; [6],0
same,n (dead/total): dead/total,[1]; [6],8 (3/12)
same,Observed Neurological Deficits Mean ± SEM,[1]; [7],1.5 ± 0.3
same,"Observed Neurological Deficits, score 0 (number of animals)",[1]; [7],0
same,"Observed Neurological Deficits, score 1 (number of animals)",[1]; [7],2
same,"Observed Neurological Deficits, score 2 (number of animals)",[1]; [7],2
same,"Observed Neurological Deficits, score 3 (number of animals)",[1]; [7],0
same,n (dead/total): dead/total,[1]; [7],4 (4/8)
same,infarct volume and hemispheric swelling (in words),"[1]; 5 minutes after ischemia (compound A: 0.05 and 0.1 mg/kg), FIG. 5b, 5f",reduces infarct volume but not hemispheric swelling
same,infarct area (in words),"[1]; 6 hours after ischemia, FIG. 5g",improvement in the infarct area
same,infarct volume (in words),"[1]; 6 hours after ischemia, FIG. 5h",decreases infarct volume
same,neurological deficits induced by ischemia (in words),[1]; administered 5 minutes after ischemia,reduced neurological deficits induced by ischemia
same,neurological deficits (in words),[1]; administration 6 hours after ischemia,reduced neurological deficits
same,times more potent than bis(7)-tacrine,[2]; AChE inhibition,~1885
same,times more potent than tacrine,[2]; AChE inhibition,~20471
same,Selectivity AchE*,[2]; IC50 (BChE)/IC50 (AChE),4563
same,IC50,[2]; enzyme prepared from rat cortex,0.0068 ± 0.003 nM
same,IC50,[3],31.1 ± 1.96 nM
